Measurements reported in patent US10023570B2 (Array BioPharma, Inc., priority 2015, dated 2018).
Where a name gives a salt, the structure may show the parent alone. Read-outs that look alike come from different tables or passages of the source.

Assays:
[1] = molecular target: N-terminal GST tagged recombinant human RET cytoplasmic domain (aa 658-end), wild type RET kinase (Homo sapiens (Human), UniProt P07949); assay: RET Enzyme Assay (HTRF KinEASE-TK), wild type RET; type: biochemical
[2] = molecular target: Kif5b-RET fusion protein in HEK-293 cells (Homo sapiens, UniProt P07949); assay: cell-based
Method: The cellular potency of a compound inhibiting RET kinase was determined in HEK-293 cells expressing a Kif5b-RET fusion protein. Briefly, HEK-293 cells expressing a Kif5b-RET fusion protein were plated at 50K cells/well in 96 well poly-D-Lysine coated plates the day prior to the assay. The cells were incubated for 1 hour with test compound in DMEM (Dulbecco's Modified Eagle Medium) at a final DMSO concentration of 0.5%. […] After 1 hour the media was removed, the cells were fixed with 3.8% formaldehyde for 20 min, washed with PBS, and permeabilized for 10 min with 100% methanol. […] All antibodies were diluted in LI-COR Block containing 0.05% Tween. The plates were washed with PBS-0.05% Tween20, 100 μL PBS was added to each well, and the plates were read on a LI-COR Aerius fluorescent plate reader. The phospho-RET signal was normalized to the GAPDH signal. […] The IC50 value is the point where the curve crosses 50 POC.

[3] = HEK-293 cells expressing Kif5b-RET, phospho-RET(Tyr1062), read-out: KIF5B-RET pTYR1062 Cell IC50
[4] = HEK-293 cells expressing Kif5b-RET, read-out: KIF5B-RET pTYR1062 Cell IC50

N-terminal GST tagged recombinant human RET cytoplasmic domain (aa 658-end), wild type RET kinase, sequence (P07949 658-1114): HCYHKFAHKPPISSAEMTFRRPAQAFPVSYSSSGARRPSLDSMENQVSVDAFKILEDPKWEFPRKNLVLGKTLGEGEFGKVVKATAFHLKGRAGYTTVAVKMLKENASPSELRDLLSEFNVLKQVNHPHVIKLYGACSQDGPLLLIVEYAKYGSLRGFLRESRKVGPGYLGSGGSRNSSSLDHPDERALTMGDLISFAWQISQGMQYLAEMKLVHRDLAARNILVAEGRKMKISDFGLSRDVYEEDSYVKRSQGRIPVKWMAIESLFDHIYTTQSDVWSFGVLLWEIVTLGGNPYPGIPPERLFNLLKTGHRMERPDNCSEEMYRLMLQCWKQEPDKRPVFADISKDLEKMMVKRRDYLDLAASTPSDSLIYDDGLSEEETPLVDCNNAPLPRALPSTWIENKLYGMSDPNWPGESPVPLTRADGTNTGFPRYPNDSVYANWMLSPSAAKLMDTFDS
Kif5b-RET fusion protein in HEK-293 cells, sequence (P07949 29-1114 limits assumed): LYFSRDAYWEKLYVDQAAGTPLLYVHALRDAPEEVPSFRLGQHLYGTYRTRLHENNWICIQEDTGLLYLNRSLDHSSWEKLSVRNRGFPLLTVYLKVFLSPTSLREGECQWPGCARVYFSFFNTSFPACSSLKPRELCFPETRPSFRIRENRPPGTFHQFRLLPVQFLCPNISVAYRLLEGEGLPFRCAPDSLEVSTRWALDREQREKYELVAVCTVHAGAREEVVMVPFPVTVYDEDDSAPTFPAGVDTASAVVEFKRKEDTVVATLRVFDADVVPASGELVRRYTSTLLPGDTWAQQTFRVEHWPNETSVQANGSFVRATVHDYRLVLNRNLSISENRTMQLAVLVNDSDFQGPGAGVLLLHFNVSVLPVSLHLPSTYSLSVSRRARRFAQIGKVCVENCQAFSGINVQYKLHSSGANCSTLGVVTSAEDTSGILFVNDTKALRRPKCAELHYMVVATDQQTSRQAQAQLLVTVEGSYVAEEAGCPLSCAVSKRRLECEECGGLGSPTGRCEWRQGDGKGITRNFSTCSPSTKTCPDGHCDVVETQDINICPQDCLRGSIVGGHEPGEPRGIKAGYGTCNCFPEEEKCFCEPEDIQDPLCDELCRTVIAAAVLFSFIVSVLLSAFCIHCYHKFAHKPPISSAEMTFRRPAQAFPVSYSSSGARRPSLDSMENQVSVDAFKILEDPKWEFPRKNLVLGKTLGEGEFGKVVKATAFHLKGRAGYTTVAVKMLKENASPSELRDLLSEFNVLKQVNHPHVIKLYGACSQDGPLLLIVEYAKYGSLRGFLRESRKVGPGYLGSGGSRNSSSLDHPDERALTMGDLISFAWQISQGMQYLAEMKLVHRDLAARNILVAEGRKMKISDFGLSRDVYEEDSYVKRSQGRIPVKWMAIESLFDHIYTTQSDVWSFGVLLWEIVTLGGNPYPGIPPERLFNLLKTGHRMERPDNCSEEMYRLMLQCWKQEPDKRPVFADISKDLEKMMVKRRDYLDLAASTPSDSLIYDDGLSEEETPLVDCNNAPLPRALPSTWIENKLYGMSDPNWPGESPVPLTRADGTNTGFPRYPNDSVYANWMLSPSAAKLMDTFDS

IC50 ([1]; wild type RET, 1 mM ATP) [nM] | IC50 [2, 4] [nM] | Structure (SMILES) | also measured
10.8 | 7.7 | COc1cccc(CN2CCN(c3ccc(-c4cc(-c5cnn(C)c5)cn5ncc(C#N)c45)cn3)CC2)n1 [Example 399, 4-(6-(4-((6-methoxypyridin-2-yl)methyl)piperazin-1-yl)pyridin-3-yl)-6-(1-methyl-1H-pyrazol-4-yl)pyrazolo[1,5-a]pyridine-3-carbonitrile] | 
10.8 | 4.6 | CC(C)S(=O)(=O)CCN1CCN(c2ccc(-c3cc(-c4cnn(C)c4)cn4ncc(C#N)c34)cn2)CC1 [Example 403, 4-(6-(4-(2-(isopropylsulfonyl)ethyl)piperazin-1-yl)pyridin-3-yl)-6-(1-methyl-1H-pyrazol-4-yl)pyrazolo[1,5-a]pyridine-3-carbonitrile] | 
30.8 | 32.5 | COCCCN1CCN(c2ccc(-c3cc(-c4cnn(C)c4)cn4ncc(C#N)c34)cn2)CC1 [Example 405, 4-(6-(4-(3-methoxypropyl)piperazin-1-yl)pyridin-3-yl)-6-(1-methyl-1H-pyrazol-4-yl)pyrazolo[1,5-a]pyridine-3-carbonitrile] | 
37.1 | 48.5 | COC(CN1CCN(c2ccc(-c3cc(-c4cnn(C)c4)cn4ncc(C#N)c34)cn2)CC1)C(C)(C)C (stereo not shown) [Example 417, 4-(6-(4-(2-methoxy-3,3-dimethylbutyl)piperazin-1-yl)pyridin-3-yl)-6-(1-methyl-1H-pyrazol-4-yl)pyrazolo[1,5-a]pyridine-3-carbonitrile] | 
9 | 146 | Cn1cc(-c2cc(-c3ccc(N4CCC(C(=O)NOCCO)CC4)nc3)c3c(C#N)cnn3c2)cn1 [Example 566, 1-(5-(3-cyano-6-(1-methyl-1H-pyrazol-4-yl)pyrazolo[1,5-a]pyridin-4-yl)pyridin-2-yl)-N-(2-hydroxyethoxy)piperidine-4-carboxamide] | 
6.1 | 5000 | Cn1cc(-c2cc(-c3ccc(N4CCC(S(=O)(=O)O)CC4)nc3)c3c(C#N)cnn3c2)cn1 [Example 568, 1-(5-(3-cyano-6-(1-methyl-1H-pyrazol-4-yl)pyrazolo[1,5-a]pyridin-4-yl)pyridin-2-yl)piperidine-4-sulfonic acid] | 

More lines, now with the values behind:

Structure (SMILES) | IC50 ([1]; wild type RET, 1 mM ATP) [nM] | IC50 [2, 4] [nM] | also measured
CC(C)(C)OC(=O)N1CCN(c2ccc(-c3cc(-c4cnn(C(F)F)c4)cn4ncc(C#N)c34)cn2)CC1 [Example 265, tert-Butyl 4-(5-(3-cyano-6-(1-(difluoromethyl)-1H-pyrazol-4-yl)pyrazolo[1,5-a]pyridin-4-yl)pyridin-2-yl)piperazine-1-carboxylate] | 153 |  | IC50 [2, 3]: 289 nM
N#Cc1cnn2cc(-c3cnn(C(F)F)c3)cc(-c3ccc(N4CCNCC4)nc3)c12 [Example 266, 6-(1-(difluoromethyl)-1H-pyrazol-4-yl)-4-(6-(piperazin-1-yl)pyridin-3-yl)pyrazolo[1,5-a]pyridine-3-carbonitrile dihydrochloride] | 47.7 |  | IC50 ([2]; read-out: KIF5B-RET pTYR1062 Cell IC50): 162 nM
Cn1cc(-c2cc(-c3ccc(N4CCN(C(=O)OC(C)(C)C)CC4)nc3)c3c(Cl)cnn3c2)cn1 [Example 325, tert-butyl 4-(5-(3-chloro-6-(1-methyl-1H-pyrazol-4-yl)pyrazolo[1,5-a]pyridin-4-yl)pyridin-2-yl)piperazine-1-carboxylate] | 372 |  | IC50 [2, 3]: 742 nM
CNC(=O)N1CCN(c2ccc(-c3cc(-c4cnn(C)c4)cn4ncc(C#N)c34)cn2)CC1 [Example 387, 4-(5-(3-cyano-6-(1-methyl-1H-pyrazol-4-yl)pyrazolo[1,5-a]pyridin-4-yl)pyridin-2-yl)-N-methylpiperazine-1-carboxamide] | 25.1 |  | IC50 [2]: 53.2 nM
CN(C)C(=O)C1CCN(c2ccc(-c3cc(-c4cnn(C)c4)cn4ncc(C#N)c34)cn2)CC1 [Example 562, 1-(5-(3-cyano-6-(1-methyl-1H-pyrazol-4-yl)pyrazolo[1,5-a]pyridine-4-yl)pyridine-2-yl)-N,N-dimethylpiperidine-4-carboxamide 2,2,2-trifluoroacetate] |  | 58.6 | IC50 [1]: 56 nM
